Source: US5410049A, “Benzodiazepine derivatives, compositions containing them and their use in therapy” (Merck Sharpe & Dohme Ltd., priority 1991, dated 1995)
Like-named read-outs stand apart in the source and are kept apart here.

Columns and labels:
[1] = target: T1, CCK receptor (pancreas) (Rattus norvegicus, UniProt P30551); experiment: CCK Receptor Binding (Pancreas), inhibition of 125I-CCK-8 binding; set-up: species or system rat (male Sprague-Dawley)
T1 construct: The whole pancreas was dissected free of fat tissue and was homogenized; from tissue; host or cells: pancreas of male Sprague-Dawley rats (membrane homogenate)
T1 sequence (P30551 1-444): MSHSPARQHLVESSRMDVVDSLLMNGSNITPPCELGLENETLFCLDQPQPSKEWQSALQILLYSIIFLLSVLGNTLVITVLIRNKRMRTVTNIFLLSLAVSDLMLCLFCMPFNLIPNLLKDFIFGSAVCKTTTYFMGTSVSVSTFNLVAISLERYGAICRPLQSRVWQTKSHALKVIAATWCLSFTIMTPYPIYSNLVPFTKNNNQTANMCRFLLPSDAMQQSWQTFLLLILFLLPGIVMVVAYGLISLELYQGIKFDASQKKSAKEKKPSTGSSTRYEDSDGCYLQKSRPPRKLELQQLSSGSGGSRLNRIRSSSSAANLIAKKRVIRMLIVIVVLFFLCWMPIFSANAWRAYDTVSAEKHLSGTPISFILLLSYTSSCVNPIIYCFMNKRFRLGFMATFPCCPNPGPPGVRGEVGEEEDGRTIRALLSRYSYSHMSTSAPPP
Method: Male Sprague-Dawley rats (150-200 g) were sacrificed by decapitation. The whole pancreas was dissected free of fat tissue and was homogenized in 25 volumes of ice-cold 10 mMN-2-hydroxyethyl-piperazine-N'-2-ethane sulphonic acid (HEPES) buffer with 0.1% soya bean trypsin inhibitor (pH 7.4 at 25° C.) with a Kinematica Polytron. The homogenates were centrifuged at 47,800 g for 10 min. Pellets were resuspended in 10 volumes of binding assay buffer (20mM (HEPES)), 1 mM ethylene glycol-bis-(β-aminoethylether-N,N'-tetraacetic acid) (EGTA), 5mM MgCl2, 150 mM NaCl, bacitracin 0.25 mg/ml, soya bean trypsin inhibitor 0.1 mg/ml, and bovine serum albumin 2 mg/ml pH 6.5 at 25° C.) using a Teflon (trademark) homogenizer, 15 strokes at 500 rpm. The homogenate was further diluted in binding assay buffer to give a final concentration of 0.5 mg original wet weight/1 ml buffer. […] All assays were run in duplicate. The reaction mixtures were incubated at 25° C. for 2 hours and the reaction terminated by rapid filtration (Brandell 24 well cell harvester) over Whatman GF/C filters, washing 3×4 mls with ice-cold 100 Mm NaCl. The radioactivity on the filters was counted with a LKB gamma counter.

[2] = target: T2, CCK receptor (brain) (Cavia porcellus, UniProt H0VZC5); experiment: CCK Receptor Binding (Brain), inhibition of 125I-CCK-8 binding; set-up: species or system guinea pig (male Hartley); conditions: guinea pig cortex membranes, 50 pM 125I-CCK-8, pH 6.5, 25° C., 2 hours
T2 construct: the cortex was removed and homogenized in 25 mL ice-cold 0.32M sucrose; from tissue; host or cells: cortex of male Hartley guinea pigs (P2 membrane pellet)
T2 sequence (H0VZC5 1-426): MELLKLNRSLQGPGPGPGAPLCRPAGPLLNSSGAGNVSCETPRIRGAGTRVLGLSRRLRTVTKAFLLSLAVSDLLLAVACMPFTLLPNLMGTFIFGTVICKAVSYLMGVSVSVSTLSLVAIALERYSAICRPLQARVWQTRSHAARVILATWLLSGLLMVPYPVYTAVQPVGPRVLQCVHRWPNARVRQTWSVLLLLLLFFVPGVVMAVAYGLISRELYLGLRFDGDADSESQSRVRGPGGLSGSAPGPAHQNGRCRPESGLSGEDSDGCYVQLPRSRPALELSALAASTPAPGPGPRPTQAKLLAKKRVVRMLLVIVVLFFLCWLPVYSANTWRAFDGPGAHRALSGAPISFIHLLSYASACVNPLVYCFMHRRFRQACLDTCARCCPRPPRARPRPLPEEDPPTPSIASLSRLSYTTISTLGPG
Method: CCK-8 sulphated was radiolabelled and the binding was performed according to the description for the pancreas method with minor modifications.
Male Hartley guinea pigs (300-500 g) were sacrificed by decapitation and the cortex was removed and homogenized in 25 mL ice-cold 0.32M sucrose. The homogenates were centrifuged at 1000 g for 10 minutes and the resulting supernatant was recentrifuged at 20,000 g for 20 minutes. The P2 pellet was resuspended in binding assay buffer (20mM HEPES, 5 mM MgCl2, 0.25 mg/ml bacitracin, 1 mM EGTA pH 6.5 at 25° C.), using a Teflon (trademark) homogenizer (5 strokes at 500 rpm) to give a final concentration of 10 mg original wet weight/1.2 ml buffer. For the binding assay, 50 μl of buffer (for total binding) or unlabelled CCK-8 sulphated to give a final concentration of 1 μM (for nonspecific binding) or the compounds of Formula I (for determination of inhibition of ^125 I-CCK-8 binding) and 50 μl of 500 pM ^125 I-CCK-8 (i.e. final concentration of 50 pM) were added to 400 μl of the membrane suspensions in microfuge tubes. All assays were run in duplicate. The reaction mixtures were incubated at 25° C. for 2 hours and then the reaction was terminated by rapid filtration (Brandell 24 well cell harvester) on Whatman GF/C filters with 3×5 ml washes of cold 100 mM NaCl. The radioactivity on the filters was counted with a LKB gamma counter.
Drug displacement studies were performed with at least 10 concentrations of compounds of Formula I and the IC50 values were determined by regression analysis IC50 refers to the concentration of the compound required to inhibit 50% of specific binding of ^125 I-CCK-8.

[3] = rat pancreas membranes, 50 pM 125I-CCK-8, pH 6.5, 25° C., 2 hours, read-out: CCK RECEPTOR BINDING RESULTS IC50, 125I-CCK Pancreas

Row | IC50 [1, 3] | IC50 [2] | SMILES | IC50 [1]
1 | 13 nM | 3.9 nM | CN1C(=O)C(NC(=O)Nc2cccc(C3=C(O)CSC3=O)c2)N=C(C2CCCCC2)c2ccccc21 (racemic) [Example 1, N-[3(R,S)-5-Cyclohexyl-2,3,dihydro-1-methyl-2-oxo-1H-1,4-benzodiazepin-3-yl]N', [3-(2,5,dihydro-4-hydroxy-2-oxothien,3-yl)phenyl]urea] | –
2 | 7.5 nM | 2.9 nM | CN1C(=O)C(NC(=O)Nc2cccc(C3=C(O)CNC3=O)c2)N=C(C2CCCCC2)c2ccccc21 (racemic) [Example 2, N-[3(R,S)-5-Cyclohexyl-2,3-dihydro-1-methyl-2-oxo-1H-1,4-benzodiazepin-3-yl]N'-[3-(2,5-dihydro-4-hydroxy-2-oxopyrrol-3-yl)phenyl]urea] | –
3 | 56 nM | 6.3 nM | CN1CC(O)=C(c2cccc(NC(=O)NC3N=C(C4CCCCC4)c4ccccc4N(C)C3=O)c2)C1=O (racemic) [Example 4, N-[3(R,S)-5-Cyclohexyl-2,3-dihydro-1-methyl-2-oxo-1H-1,4-benzodiazepin-3-yl]N'-[3-(2,5-dihydro-4-hydroxy-N-methyl-2-oxopyrrol-3-yl)phenyl]urea] | –
4 | 280 nM | 2.5 nM | CN1CC(O)=C(c2cccc(NC(=O)N[C@@H]3N=C(C4CCCCC4)c4ccccc4N(C)C3=O)c2)C1=O [Example 5, N-[3(R)-5-Cyclohexyl-2,3-dihydro-1-methyl-2-oxo-1H-1,4-benzodiazepin-3-yl]N'-[3-(2,5-dihydro-4-hydroxy-N-methyl-2-oxopyrrol-3-yl)phenyl] urea] | –
5 | 110 nM | 0.67 nM | CN1C(=O)[C@H](NC(=O)Nc2cccc(C3=C(O)CNC3=O)c2)N=C(C2CCCCC2)c2ccccc21 [Example 6, N-[3(R)-5-Cyclohexyl-2,3-dihydro-1-methyl-2-oxo-1H-1,4-benzodiazepin-3-yl]N'-[3-(2,5-dihydro-4-hydroxy-2oxopyrrol-3-yl)phenyl]urea] | –

Row | SMILES | IC50 [1, 3] | IC50 [2] | IC50 [1]
6 | CN1C(=O)[C@H](NC(=O)Nc2cccc(C3=C(O)CNC3=O)c2)N=C(c2ccccc2)c2ccccc21 [Example 3, N-[3(R)-2,3-Dihydro-1-methyl-2-oxo-5-phenyl-1H-1,4-benzodiazepin-3-yl]N'-[3-(2,5-dihydro-4-hydroxy-2-oxopyrrol-3-yl)phenyl]urea] | – | 16 nM | > 3000 nM
